The values that follow come from publication PMC4194318, “Genetic and pharmacological evidence that G2019S LRRK2 confers a hyperkinetic phenotype, resistant to motor decline associated with aging” (Neurobiology of Disease, 2014).

The target of assay [1] is T1, LRRK2 (leucine-rich repeat kinase 2) (Mus musculus, UniProt Q5S006, G2019S).
T1 construct: endogenous LRRK2 in striatum of G2019S knock-in mice
Kind of assay: ex vivo Western blot of LRRK2 pSer935, […] min after […] mg/kg i.p. The class given is cell-based.

In assay [2] the target is T2, LRRK2 (leucine-rich repeat kinase 2) (Mus musculus, UniProt Q5S006).
T2 construct: endogenous LRRK2 in NIH3T3 cells
T2 sequence (Q5S006 whole entry): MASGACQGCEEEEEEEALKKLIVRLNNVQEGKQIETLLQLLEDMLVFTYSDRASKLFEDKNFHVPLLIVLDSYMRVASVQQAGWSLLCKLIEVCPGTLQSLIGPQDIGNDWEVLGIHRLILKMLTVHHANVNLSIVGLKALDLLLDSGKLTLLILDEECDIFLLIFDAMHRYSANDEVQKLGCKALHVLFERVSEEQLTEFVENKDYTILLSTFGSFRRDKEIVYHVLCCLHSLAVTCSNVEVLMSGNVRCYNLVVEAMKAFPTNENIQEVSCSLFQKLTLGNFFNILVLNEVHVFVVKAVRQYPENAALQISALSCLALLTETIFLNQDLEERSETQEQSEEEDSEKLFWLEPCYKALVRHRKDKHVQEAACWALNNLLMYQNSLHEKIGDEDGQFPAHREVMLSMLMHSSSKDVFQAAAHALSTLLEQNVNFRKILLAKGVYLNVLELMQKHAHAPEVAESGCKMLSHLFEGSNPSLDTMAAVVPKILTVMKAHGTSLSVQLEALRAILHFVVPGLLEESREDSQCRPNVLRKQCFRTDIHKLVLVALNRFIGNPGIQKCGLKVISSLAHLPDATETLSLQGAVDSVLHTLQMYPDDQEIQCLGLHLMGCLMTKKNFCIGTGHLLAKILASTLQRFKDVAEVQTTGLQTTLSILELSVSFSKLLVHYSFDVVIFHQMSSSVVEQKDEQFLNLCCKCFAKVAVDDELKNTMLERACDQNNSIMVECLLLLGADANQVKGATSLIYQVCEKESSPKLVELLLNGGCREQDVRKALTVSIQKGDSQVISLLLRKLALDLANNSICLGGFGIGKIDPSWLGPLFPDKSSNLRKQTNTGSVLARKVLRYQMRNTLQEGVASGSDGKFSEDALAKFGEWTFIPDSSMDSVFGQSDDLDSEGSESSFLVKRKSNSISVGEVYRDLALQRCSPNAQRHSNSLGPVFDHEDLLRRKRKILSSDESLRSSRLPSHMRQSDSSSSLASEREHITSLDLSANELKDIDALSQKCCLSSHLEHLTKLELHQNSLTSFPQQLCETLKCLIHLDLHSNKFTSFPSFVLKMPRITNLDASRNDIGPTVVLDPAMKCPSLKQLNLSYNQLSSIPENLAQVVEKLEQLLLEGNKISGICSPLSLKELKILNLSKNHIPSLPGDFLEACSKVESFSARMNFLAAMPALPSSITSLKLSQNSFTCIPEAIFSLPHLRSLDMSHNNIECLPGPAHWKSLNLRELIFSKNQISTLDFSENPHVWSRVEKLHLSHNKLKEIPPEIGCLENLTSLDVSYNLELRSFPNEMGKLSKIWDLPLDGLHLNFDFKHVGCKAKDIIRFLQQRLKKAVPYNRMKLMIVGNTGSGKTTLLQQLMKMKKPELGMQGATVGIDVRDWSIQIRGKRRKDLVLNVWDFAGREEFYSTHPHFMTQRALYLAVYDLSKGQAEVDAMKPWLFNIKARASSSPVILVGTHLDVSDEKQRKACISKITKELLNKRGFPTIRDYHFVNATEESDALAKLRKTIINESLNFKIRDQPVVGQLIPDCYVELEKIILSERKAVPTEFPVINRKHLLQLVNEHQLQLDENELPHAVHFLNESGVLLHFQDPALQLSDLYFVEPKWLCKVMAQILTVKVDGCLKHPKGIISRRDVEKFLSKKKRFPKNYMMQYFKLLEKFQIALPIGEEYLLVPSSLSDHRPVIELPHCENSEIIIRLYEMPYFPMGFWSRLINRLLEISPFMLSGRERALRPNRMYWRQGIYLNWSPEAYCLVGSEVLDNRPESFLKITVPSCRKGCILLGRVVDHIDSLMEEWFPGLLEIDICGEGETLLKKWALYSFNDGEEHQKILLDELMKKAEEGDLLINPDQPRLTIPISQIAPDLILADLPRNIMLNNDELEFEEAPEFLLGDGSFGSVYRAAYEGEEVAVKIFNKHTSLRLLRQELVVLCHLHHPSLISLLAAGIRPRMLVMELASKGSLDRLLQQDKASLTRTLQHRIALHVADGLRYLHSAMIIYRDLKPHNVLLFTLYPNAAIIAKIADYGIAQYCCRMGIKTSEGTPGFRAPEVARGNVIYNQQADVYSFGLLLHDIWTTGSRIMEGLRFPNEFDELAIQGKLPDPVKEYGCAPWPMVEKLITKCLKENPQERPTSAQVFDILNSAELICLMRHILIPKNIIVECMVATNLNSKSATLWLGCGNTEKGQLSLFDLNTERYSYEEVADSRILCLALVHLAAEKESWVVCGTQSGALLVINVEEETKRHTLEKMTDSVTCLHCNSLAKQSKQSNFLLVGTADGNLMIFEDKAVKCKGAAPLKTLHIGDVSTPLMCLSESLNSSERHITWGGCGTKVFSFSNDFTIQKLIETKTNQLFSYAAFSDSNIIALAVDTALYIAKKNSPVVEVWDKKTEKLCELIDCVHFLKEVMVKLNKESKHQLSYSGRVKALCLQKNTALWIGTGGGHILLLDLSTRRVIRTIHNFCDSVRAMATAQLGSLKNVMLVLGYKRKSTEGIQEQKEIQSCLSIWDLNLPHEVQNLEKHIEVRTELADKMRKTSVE
Kind of assay: Western blot of LRRK2 pSer935 in NIH3T3 cells, […] min; also ex vivo mouse striatum and cortex. The class given is cell-based.

pIC50: −log10 of the molar value.

T1 sequence (Q5S006 whole entry G2019S): as the sequence (Q5S006 whole entry) above, with G2019S counted along it

Turning to `Cc1cncc2cccc(S(=O)(=O)N3CCCNC[C@@H]3C)c12` [H-1152, (S)-(+)-2-methyl-1-[(4-methyl-5-isoquinoline)sulfonyl]-homopiperazine], the “ex vivo Western blot of LRRK2 pSer935, 20 min after 1 mg/kg i.p.” value in assay [1] is recorded as “H-1152 attenuated endogenous LRRK2 phosphorylation at Ser935 in striatum but not cerebral cortex of G2019S knock-in (G2019S KI) mice”. Usually pIC50 stands for the negative decadic logarithm of the IC50, by convention in mol/L. `CC(=O)N1CCc2[nH]c(/C=C3\C(=O)Nc4ccc(OC(C)C)cc43)cc2C1` [Nov-LRRK2-11]: in assay [2], the pIC50 is 9.42.
